In PubChem BioAssay (NCI):
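Method: 48-hour compound exposure of cells in 96-well plates, five concentrations, linear interpolation of endpoints. GI50: concentration for 50% inhibition of growth. At the TGI there is no net growth.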

Legend:
Experiment in all cases: inhibition of tumour cell growth, NCI panel, 48 h
SK-MEL-5 melanoma = system: SK-MEL-5 melanoma
CAKI-1 renal = system: CAKI-1 renal
UO-31 renal = system: UO-31 renal
DU-145 prostate = system: DU-145 prostate
UACC-257 melanoma = system: UACC-257 melanoma
T-47D breast = system: T-47D breast
SNB-75 CNS = system: SNB-75 CNS
SK-MEL-28 melanoma = system: SK-MEL-28 melanoma
HOP-62 NSCLC = system: HOP-62 NSCLC
COLO 205 colon = system: COLO 205 colon
TK-10 renal = system: TK-10 renal
SK-OV-3 ovarian = system: SK-OV-3 ovarian
MDA-MB-435 = system: MDA-MB-435
HOP-92 NSCLC = system: HOP-92 NSCLC
MDA-MB-231 breast = system: MDA-MB-231 breast
OVCAR-8 ovarian = system: OVCAR-8 ovarian
CCRF-CEM leukemia = system: CCRF-CEM leukemia
SW-620 colon = system: SW-620 colon
786-0 renal = system: 786-0 renal
U251 CNS = system: U251 CNS
MALME-3M melanoma = system: MALME-3M melanoma
IGROV1 ovarian = system: IGROV1 ovarian
HT29 colon = system: HT29 colon
UACC-62 melanoma = system: UACC-62 melanoma
OVCAR-5 ovarian = system: OVCAR-5 ovarian
HS 578T breast = system: HS 578T breast
NCI-H522 lung = system: NCI-H522 lung
SF-539 CNS = system: SF-539 CNS
HL-60(TB) leukemia = system: HL-60(TB) leukemia
MCF7 breast = system: MCF7 breast
LOX IMVI melanoma = system: LOX IMVI melanoma
SK-MEL-2 melanoma = system: SK-MEL-2 melanoma
RXF 393 renal = system: RXF 393 renal
OVCAR-4 ovarian = system: OVCAR-4 ovarian
PC-3 prostate = system: PC-3 prostate
SR leukemia = system: SR leukemia
RPMI-8226 leukemia = system: RPMI-8226 leukemia
SN12C renal = system: SN12C renal
HCT-116 colon = system: HCT-116 colon
NCI/ADR-RES ovarian = system: NCI/ADR-RES ovarian
M14 melanoma = system: M14 melanoma
A498 renal = system: A498 renal
ACHN renal = system: ACHN renal
EKVX NSCLC = system: EKVX NSCLC
A549 NSCLC = system: A549 NSCLC
SNB-19 CNS = system: SNB-19 CNS
NCI-H23 lung = system: NCI-H23 lung
SF-295 CNS = system: SF-295 CNS
HCC-2998 colon = system: HCC-2998 colon
K-562 leukemia = system: K-562 leukemia
KM12 colon = system: KM12 colon
NCI-H226 lung = system: NCI-H226 lung
SF-268 CNS = system: SF-268 CNS
BT-549 breast = system: BT-549 breast
MOLT-4 leukemia = system: MOLT-4 leukemia
HCT-15 colon = system: HCT-15 colon
OVCAR-3 ovarian = system: OVCAR-3 ovarian
NCI-H460 lung = system: NCI-H460 lung

With `O=C(c1ccco1)c1c(C(F)(F)F)nc2cc(C(F)(F)F)ccc2[n+]1[O-]` as the compound, how does the GI50 (SK-MEL-5 melanoma) read?
The GI50 was over 100 µM.

And the TGI (SK-MEL-5 melanoma)?
Its TGI is over 100 µM.

What about the GI50 (CAKI-1 renal) of the same compound?
The GI50 was 19.7 µM.

What about the TGI (CAKI-1 renal) of the same compound?
The TGI was 58.8 µM.

What about the GI50 (UO-31 renal) of the same compound?
Its GI50 is 66.9 µM.

And the TGI (UO-31 renal)?
Its TGI is over 100 µM.

And the GI50 (DU-145 prostate)?
The GI50 was 45.1 µM.

What about the TGI (DU-145 prostate) of the same compound?
The TGI was over 100 µM.

And the GI50 (UACC-257 melanoma)?
Its GI50 is over 100 µM.

What about the TGI (UACC-257 melanoma) of the same compound?
The TGI was over 100 µM.

And the GI50 (T-47D breast)?
The GI50 was 18.9 µM.

What about the TGI (T-47D breast) of the same compound?
The TGI was 49.6 µM.

What about the GI50 (SNB-75 CNS) of the same compound?
The GI50 was 16.6 µM.

And the TGI (SNB-75 CNS)?
Its TGI is 42.7 µM.

And the GI50 (SK-MEL-28 melanoma)?
The GI50 was over 100 µM.

What about the TGI (SK-MEL-28 melanoma) of the same compound?
The TGI was over 100 µM.

And the GI50 (HOP-62 NSCLC)?
Its GI50 is 22.9 µM.

And the TGI (HOP-62 NSCLC)?
Its TGI is over 100 µM.

And the GI50 (COLO 205 colon)?
Its GI50 is over 100 µM.

What about the TGI (COLO 205 colon) of the same compound?
Its TGI is over 100 µM.

What about the GI50 (TK-10 renal) of the same compound?
The GI50 was 28.6 µM.

What about the TGI (TK-10 renal) of the same compound?
The TGI was over 100 µM.

What about the GI50 (SK-OV-3 ovarian) of the same compound?
The GI50 was 20.3 µM.

And the TGI (SK-OV-3 ovarian)?
Its TGI is 64.6 µM.

What about the GI50 (MDA-MB-435) of the same compound?
Its GI50 is over 100 µM.

And the TGI (MDA-MB-435)?
The TGI was over 100 µM.

And the GI50 (HOP-92 NSCLC)?
Its GI50 is 16.5 µM.

And the TGI (HOP-92 NSCLC)?
Its TGI is 68.8 µM.

And the GI50 (MDA-MB-231 breast)?
Its GI50 is 18.9 µM.

And the TGI (MDA-MB-231 breast)?
The TGI was 40.9 µM.

And the GI50 (OVCAR-8 ovarian)?
Its GI50 is 31.8 µM.

And the TGI (OVCAR-8 ovarian)?
The TGI was over 100 µM.

And the GI50 (CCRF-CEM leukemia)?
The GI50 was 15.6 µM.

What about the TGI (CCRF-CEM leukemia) of the same compound?
Its TGI is 44.3 µM.

And the GI50 (SW-620 colon)?
Its GI50 is over 100 µM.

What about the TGI (SW-620 colon) of the same compound?
The TGI was over 100 µM.

And the GI50 (786-0 renal)?
The GI50 was 36.7 µM.

What about the TGI (786-0 renal) of the same compound?
Its TGI is over 100 µM.

What about the GI50 (U251 CNS) of the same compound?
Its GI50 is 34.7 µM.

What about the TGI (U251 CNS) of the same compound?
The TGI was over 100 µM.

What about the GI50 (MALME-3M melanoma) of the same compound?
The GI50 was 54.2 µM.

What about the TGI (MALME-3M melanoma) of the same compound?
The TGI was over 100 µM.

What about the GI50 (IGROV1 ovarian) of the same compound?
The GI50 was 26.5 µM.

What about the TGI (IGROV1 ovarian) of the same compound?
The TGI was 90.6 µM.

What about the GI50 (HT29 colon) of the same compound?
Its GI50 is over 100 µM.

What about the TGI (HT29 colon) of the same compound?
Its TGI is over 100 µM.

What about the GI50 (UACC-62 melanoma) of the same compound?
The GI50 was over 100 µM.

And the TGI (UACC-62 melanoma)?
Its TGI is over 100 µM.

What about the GI50 (OVCAR-5 ovarian) of the same compound?
The GI50 was 67.8 µM.

What about the TGI (OVCAR-5 ovarian) of the same compound?
Its TGI is over 100 µM.

What about the GI50 (HS 578T breast) of the same compound?
Its GI50 is 26.7 µM.

And the TGI (HS 578T breast)?
The TGI was 74.9 µM.

What about the GI50 (NCI-H522 lung) of the same compound?
Its GI50 is 65.8 µM.

And the TGI (NCI-H522 lung)?
The TGI was over 100 µM.

What about the GI50 (SF-539 CNS) of the same compound?
Its GI50 is 21.2 µM.

And the TGI (SF-539 CNS)?
The TGI was 54.2 µM.

What about the GI50 (HL-60(TB) leukemia) of the same compound?
Its GI50 is over 100 µM.

And the TGI (HL-60(TB) leukemia)?
Its TGI is over 100 µM.

What about the GI50 (MCF7 breast) of the same compound?
The GI50 was 35.3 µM.

What about the TGI (MCF7 breast) of the same compound?
The TGI was over 100 µM.

And the GI50 (LOX IMVI melanoma)?
The GI50 was 48.1 µM.

And the TGI (LOX IMVI melanoma)?
Its TGI is over 100 µM.

And the GI50 (SK-MEL-2 melanoma)?
The GI50 was 69.3 µM.

And the TGI (SK-MEL-2 melanoma)?
Its TGI is over 100 µM.

And the GI50 (RXF 393 renal)?
The GI50 was 20.3 µM.

What about the TGI (RXF 393 renal) of the same compound?
Its TGI is 80 µM.

What about the GI50 (OVCAR-4 ovarian) of the same compound?
The GI50 was over 100 µM.

What about the TGI (OVCAR-4 ovarian) of the same compound?
The TGI was over 100 µM.

What about the GI50 (PC-3 prostate) of the same compound?
Its GI50 is 44.9 µM.

And the TGI (PC-3 prostate)?
Its TGI is over 100 µM.

What about the GI50 (SR leukemia) of the same compound?
The GI50 was 33.7 µM.

And the TGI (SR leukemia)?
The TGI was over 100 µM.

And the GI50 (RPMI-8226 leukemia)?
Its GI50 is 34.4 µM.

And the TGI (RPMI-8226 leukemia)?
Its TGI is over 100 µM.

What about the GI50 (SN12C renal) of the same compound?
The GI50 was 43.7 µM.

What about the TGI (SN12C renal) of the same compound?
Its TGI is over 100 µM.

What about the GI50 (HCT-116 colon) of the same compound?
The GI50 was 33.4 µM.

And the TGI (HCT-116 colon)?
The TGI was over 100 µM.

And the GI50 (NCI/ADR-RES ovarian)?
The GI50 was 67.2 µM.

And the TGI (NCI/ADR-RES ovarian)?
The TGI was over 100 µM.

And the GI50 (M14 melanoma)?
Its GI50 is over 100 µM.

And the TGI (M14 melanoma)?
Its TGI is over 100 µM.

What about the GI50 (A498 renal) of the same compound?
The GI50 was 20.5 µM.

And the TGI (A498 renal)?
Its TGI is 63.8 µM.

And the GI50 (ACHN renal)?
The GI50 was 82.1 µM.

And the TGI (ACHN renal)?
Its TGI is over 100 µM.

And the GI50 (EKVX NSCLC)?
Its GI50 is 50.6 µM.

And the TGI (EKVX NSCLC)?
Its TGI is over 100 µM.

What about the GI50 (A549 NSCLC) of the same compound?
The GI50 was 48.4 µM.

And the TGI (A549 NSCLC)?
The TGI was over 100 µM.

And the GI50 (SNB-19 CNS)?
The GI50 was 40.7 µM.

And the TGI (SNB-19 CNS)?
The TGI was over 100 µM.

What about the GI50 (NCI-H23 lung) of the same compound?
The GI50 was 48.4 µM.

What about the TGI (NCI-H23 lung) of the same compound?
Its TGI is over 100 µM.

And the GI50 (SF-295 CNS)?
The GI50 was 17.5 µM.

What about the TGI (SF-295 CNS) of the same compound?
The TGI was 40.4 µM.

And the GI50 (HCC-2998 colon)?
The GI50 was over 100 µM.

And the TGI (HCC-2998 colon)?
The TGI was over 100 µM.

And the GI50 (K-562 leukemia)?
Its GI50 is 38.3 µM.

What about the TGI (K-562 leukemia) of the same compound?
Its TGI is over 100 µM.

What about the GI50 (KM12 colon) of the same compound?
Its GI50 is over 100 µM.

And the TGI (KM12 colon)?
Its TGI is over 100 µM.

What about the GI50 (NCI-H226 lung) of the same compound?
The GI50 was over 100 µM.

And the TGI (NCI-H226 lung)?
The TGI was over 100 µM.

What about the GI50 (SF-268 CNS) of the same compound?
The GI50 was 24.6 µM.

What about the TGI (SF-268 CNS) of the same compound?
Its TGI is 81.3 µM.

And the GI50 (BT-549 breast)?
Its GI50 is 57.8 µM.

What about the TGI (BT-549 breast) of the same compound?
The TGI was over 100 µM.

What about the GI50 (MOLT-4 leukemia) of the same compound?
Its GI50 is over 100 µM.

And the TGI (MOLT-4 leukemia)?
Its TGI is over 100 µM.

And the GI50 (HCT-15 colon)?
The GI50 was over 100 µM.

And the TGI (HCT-15 colon)?
Its TGI is over 100 µM.

And the GI50 (OVCAR-3 ovarian)?
The GI50 was 37.8 µM.

And the TGI (OVCAR-3 ovarian)?
The TGI was over 100 µM.

What about the GI50 (NCI-H460 lung) of the same compound?
Its GI50 is 56 µM.

What about the TGI (NCI-H460 lung) of the same compound?
Its TGI is over 100 µM.
